From PubChem BioAssay AID2060599 (Molecular Pharmacology Branch, DTP, NCI, 2025)

System: 817829-284-R-J1-PDC complex spheroids, viability
Experiment: Anticancer human tumor 817829-284-R-J1-PDC patient-derived colon adenocarcinoma cell line growth inhibition [CLK]
Conditions: second compound 10 µM; first compound 0.0316 µM; stronger effect = lower value
In short: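 Multi-cell-type spheroids combined patient-derived tumor cells with HUVEC endothelial cells and human mesenchymal stem cells. Paired agents were dosed in half-log steps down from about clinical Cmax, or from 10 microM where Cmax was unknown.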
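Further: spheroids exposed to the agents for seven days before readout.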

SMILES | viability, T/C [%]
CCCS(=O)(=O)Nc1ccc(F)c(C(=O)c2c[nH]c3ncc(-c4ccc(Cl)cc4)cc23)c1F + CNC(=O)c1ccc(Nc2nc(OC3CCCC3)c3c(-c4ccc5nc(C)oc5c4)c[nH]c3n2)c(OC)c1 | 21.7
COC1C=CCC(C)C(C)S(=O)(=O)NC(=O)c2ccc3c(c2)N(CC2CCC21)CC1(CCCc2cc(Cl)ccc21)CO3 (configuration not stated) + CNC(=O)c1ccc(Nc2nc(OC3CCCC3)c3c(-c4ccc5nc(C)oc5c4)c[nH]c3n2)c(OC)c1 | 27.4

Same assay, conditions: second compound 10 µM; first compound 0.1 µM; stronger effect = lower value

SMILES | viability, T/C [%]
C#Cc1c(F)ccc2cc(O)cc(-c3ncc4c(N5CC6CCC(C5)N6)nc(OCC56CCCN5CC(F)C6)nc4c3F)c12 (configuration not stated) + CNC(=O)c1ccc(Nc2nc(OC3CCCC3)c3c(-c4ccc5nc(C)oc5c4)c[nH]c3n2)c(OC)c1 | 20.1
C=C(F)C(=O)N1CCN(c2nc(OCC3CCCN3C)nc3c2CCN(c2cccc4cccc(Cl)c24)C3)CC1CC#N (configuration not stated) + CNC(=O)c1ccc(Nc2nc(OC3CCCC3)c3c(-c4ccc5nc(C)oc5c4)c[nH]c3n2)c(OC)c1 | 14.1
C=CC(=O)N1CCN(c2nc(=O)n(-c3c(C)ccnc3C(C)C)c3nc(-c4c(O)cccc4F)c(F)cc23)C(C)C1 (configuration not stated) + CNC(=O)c1ccc(Nc2nc(OC3CCCC3)c3c(-c4ccc5nc(C)oc5c4)c[nH]c3n2)c(OC)c1 | 23.3
CCCS(=O)(=O)Nc1ccc(F)c(C(=O)c2c[nH]c3ncc(-c4ccc(Cl)cc4)cc23)c1F + CNC(=O)c1ccc(Nc2nc(OC3CCCC3)c3c(-c4ccc5nc(C)oc5c4)c[nH]c3n2)c(OC)c1 | 17.4
COC1C=CCC(C)C(C)S(=O)(=O)NC(=O)c2ccc3c(c2)N(CC2CCC21)CC1(CCCc2cc(Cl)ccc21)CO3 (configuration not stated) + CNC(=O)c1ccc(Nc2nc(OC3CCCC3)c3c(-c4ccc5nc(C)oc5c4)c[nH]c3n2)c(OC)c1 | 23.8

Same assay, conditions: second compound 10 µM; first compound 0.316 µM; stronger effect = lower value

SMILES | viability, T/C [%]
C#Cc1c(F)ccc2cc(O)cc(-c3ncc4c(N5CC6CCC(C5)N6)nc(OCC56CCCN5CC(F)C6)nc4c3F)c12 (configuration not stated) + CNC(=O)c1ccc(Nc2nc(OC3CCCC3)c3c(-c4ccc5nc(C)oc5c4)c[nH]c3n2)c(OC)c1 | 22.6
C=C(F)C(=O)N1CCN(c2nc(OCC3CCCN3C)nc3c2CCN(c2cccc4cccc(Cl)c24)C3)CC1CC#N (configuration not stated) + CNC(=O)c1ccc(Nc2nc(OC3CCCC3)c3c(-c4ccc5nc(C)oc5c4)c[nH]c3n2)c(OC)c1 | 20.6
C=CC(=O)N1CCN(c2nc(=O)n(-c3c(C)ccnc3C(C)C)c3nc(-c4c(O)cccc4F)c(F)cc23)C(C)C1 (configuration not stated) + CNC(=O)c1ccc(Nc2nc(OC3CCCC3)c3c(-c4ccc5nc(C)oc5c4)c[nH]c3n2)c(OC)c1 | 22
CCCS(=O)(=O)Nc1ccc(F)c(C(=O)c2c[nH]c3ncc(-c4ccc(Cl)cc4)cc23)c1F + CNC(=O)c1ccc(Nc2nc(OC3CCCC3)c3c(-c4ccc5nc(C)oc5c4)c[nH]c3n2)c(OC)c1 | 12
COC1C=CCC(C)C(C)S(=O)(=O)NC(=O)c2ccc3c(c2)N(CC2CCC21)CC1(CCCc2cc(Cl)ccc21)CO3 (configuration not stated) + CNC(=O)c1ccc(Nc2nc(OC3CCCC3)c3c(-c4ccc5nc(C)oc5c4)c[nH]c3n2)c(OC)c1 | 19.8

Same assay, conditions: second compound 10 µM; first compound 1 µM; stronger effect = lower value

SMILES | viability, T/C [%]
C#Cc1c(F)ccc2cc(O)cc(-c3ncc4c(N5CC6CCC(C5)N6)nc(OCC56CCCN5CC(F)C6)nc4c3F)c12 (configuration not stated) + CNC(=O)c1ccc(Nc2nc(OC3CCCC3)c3c(-c4ccc5nc(C)oc5c4)c[nH]c3n2)c(OC)c1 | 18.4
C=C(F)C(=O)N1CCN(c2nc(OCC3CCCN3C)nc3c2CCN(c2cccc4cccc(Cl)c24)C3)CC1CC#N (configuration not stated) + CNC(=O)c1ccc(Nc2nc(OC3CCCC3)c3c(-c4ccc5nc(C)oc5c4)c[nH]c3n2)c(OC)c1 | 28.5
C=CC(=O)N1CCN(c2nc(=O)n(-c3c(C)ccnc3C(C)C)c3nc(-c4c(O)cccc4F)c(F)cc23)C(C)C1 (configuration not stated) + CNC(=O)c1ccc(Nc2nc(OC3CCCC3)c3c(-c4ccc5nc(C)oc5c4)c[nH]c3n2)c(OC)c1 | 27.3
CCCS(=O)(=O)Nc1ccc(F)c(C(=O)c2c[nH]c3ncc(-c4ccc(Cl)cc4)cc23)c1F + CNC(=O)c1ccc(Nc2nc(OC3CCCC3)c3c(-c4ccc5nc(C)oc5c4)c[nH]c3n2)c(OC)c1 | 17.2
COC1C=CCC(C)C(C)S(=O)(=O)NC(=O)c2ccc3c(c2)N(CC2CCC21)CC1(CCCc2cc(Cl)ccc21)CO3 (configuration not stated) + CNC(=O)c1ccc(Nc2nc(OC3CCCC3)c3c(-c4ccc5nc(C)oc5c4)c[nH]c3n2)c(OC)c1 | 13.2

Same assay, conditions: second compound 10 µM; first compound 3.16 µM; stronger effect = lower value

SMILES | viability, T/C [%]
C#Cc1c(F)ccc2cc(O)cc(-c3ncc4c(N5CC6CCC(C5)N6)nc(OCC56CCCN5CC(F)C6)nc4c3F)c12 (configuration not stated) + CNC(=O)c1ccc(Nc2nc(OC3CCCC3)c3c(-c4ccc5nc(C)oc5c4)c[nH]c3n2)c(OC)c1 | 17.7
C=C(F)C(=O)N1CCN(c2nc(OCC3CCCN3C)nc3c2CCN(c2cccc4cccc(Cl)c24)C3)CC1CC#N (configuration not stated) + CNC(=O)c1ccc(Nc2nc(OC3CCCC3)c3c(-c4ccc5nc(C)oc5c4)c[nH]c3n2)c(OC)c1 | 3.94
C=CC(=O)N1CCN(c2nc(=O)n(-c3c(C)ccnc3C(C)C)c3nc(-c4c(O)cccc4F)c(F)cc23)C(C)C1 (configuration not stated) + CNC(=O)c1ccc(Nc2nc(OC3CCCC3)c3c(-c4ccc5nc(C)oc5c4)c[nH]c3n2)c(OC)c1 | 19.1
CCCS(=O)(=O)Nc1ccc(F)c(C(=O)c2c[nH]c3ncc(-c4ccc(Cl)cc4)cc23)c1F + CNC(=O)c1ccc(Nc2nc(OC3CCCC3)c3c(-c4ccc5nc(C)oc5c4)c[nH]c3n2)c(OC)c1 | 9.32
COC1C=CCC(C)C(C)S(=O)(=O)NC(=O)c2ccc3c(c2)N(CC2CCC21)CC1(CCCc2cc(Cl)ccc21)CO3 (configuration not stated) + CNC(=O)c1ccc(Nc2nc(OC3CCCC3)c3c(-c4ccc5nc(C)oc5c4)c[nH]c3n2)c(OC)c1 | 7.33

Same assay, conditions: second compound 10 µM; first compound 10 µM; stronger effect = lower value

SMILES | viability, T/C [%]
C#Cc1c(F)ccc2cc(O)cc(-c3ncc4c(N5CC6CCC(C5)N6)nc(OCC56CCCN5CC(F)C6)nc4c3F)c12 (configuration not stated) + CNC(=O)c1ccc(Nc2nc(OC3CCCC3)c3c(-c4ccc5nc(C)oc5c4)c[nH]c3n2)c(OC)c1 | 9.34
C=C(F)C(=O)N1CCN(c2nc(OCC3CCCN3C)nc3c2CCN(c2cccc4cccc(Cl)c24)C3)CC1CC#N (configuration not stated) + CNC(=O)c1ccc(Nc2nc(OC3CCCC3)c3c(-c4ccc5nc(C)oc5c4)c[nH]c3n2)c(OC)c1 | 0.22
C=CC(=O)N1CCN(c2nc(=O)n(-c3c(C)ccnc3C(C)C)c3nc(-c4c(O)cccc4F)c(F)cc23)C(C)C1 (configuration not stated) + CNC(=O)c1ccc(Nc2nc(OC3CCCC3)c3c(-c4ccc5nc(C)oc5c4)c[nH]c3n2)c(OC)c1 | 12
CCCS(=O)(=O)Nc1ccc(F)c(C(=O)c2c[nH]c3ncc(-c4ccc(Cl)cc4)cc23)c1F + CNC(=O)c1ccc(Nc2nc(OC3CCCC3)c3c(-c4ccc5nc(C)oc5c4)c[nH]c3n2)c(OC)c1 | 5.05
COC1C=CCC(C)C(C)S(=O)(=O)NC(=O)c2ccc3c(c2)N(CC2CCC21)CC1(CCCc2cc(Cl)ccc21)CO3 (configuration not stated) + CNC(=O)c1ccc(Nc2nc(OC3CCCC3)c3c(-c4ccc5nc(C)oc5c4)c[nH]c3n2)c(OC)c1 | 3.62
